Measured values taken from PubChem BioAssay (NCI).
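48-hour exposure; five concentrations; linearly interpolated endpoints. Definition used: TGI = concentration required for complete inhibition of growth.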 Where a SMILES comes first, the peptide text is derived from it. [ ]: non-standard residue; d: D form. The star is where a group is joined. Boc = CC(C)(C)OC(=O)*; Lac = C[CH](O)C(=O)O; OBn = c1ccc(CO*)cc1

Assays:
Experiment in all cases: DTP human tumour cell line panel, 48 h
CAKI-1 renal = system: CAKI-1 renal
HCC-2998 colon = system: HCC-2998 colon
HCT-116 colon = system: HCT-116 colon
HOP-62 NSCLC = system: HOP-62 NSCLC
KM12 colon = system: KM12 colon
MALME-3M melanoma = system: MALME-3M melanoma
NCI-H522 lung = system: NCI-H522 lung
OVCAR-8 ovarian = system: OVCAR-8 ovarian
SK-MEL-2 melanoma = system: SK-MEL-2 melanoma
SK-MEL-5 melanoma = system: SK-MEL-5 melanoma
SNB-19 CNS = system: SNB-19 CNS
SNB-75 CNS = system: SNB-75 CNS
SR leukemia = system: SR leukemia
U251 CNS = system: U251 CNS
A549 NSCLC = system: A549 NSCLC
DLD-1 colon = system: DLD-1 colon
LOX IMVI melanoma = system: LOX IMVI melanoma
OVCAR-4 ovarian = system: OVCAR-4 ovarian
SNB-78 CNS = system: SNB-78 CNS
UACC-62 melanoma = system: UACC-62 melanoma

CC(OC(=O)C(Cc1ccccc1)NC(=O)C(Cc1ccccc1)NC(=O)OC(C)(C)C)C(=O)OCc1ccccc1 (stereo not drawn) (Boc-Phe-Phe-[Lac]-OBn; configuration not given here)
TGI (CAKI-1 renal): > 100 µM
TGI (HCC-2998 colon): > 100 µM
TGI (HCT-116 colon): > 100 µM
TGI (HOP-62 NSCLC): > 100 µM
TGI (KM12 colon): > 100 µM
TGI (MALME-3M melanoma): > 100 µM
TGI (NCI-H522 lung): > 100 µM
TGI (OVCAR-8 ovarian): > 100 µM
TGI (SK-MEL-2 melanoma): > 100 µM
TGI (SK-MEL-5 melanoma): > 100 µM
TGI (SNB-19 CNS): > 100 µM
TGI (SNB-75 CNS): > 100 µM
TGI (SR leukemia): > 100 µM
TGI (U251 CNS): > 100 µM

N/C(=N\N=C/c1ccc(O)c(O)c1O)NO
TGI (A549 NSCLC): > 100 µM
TGI (CAKI-1 renal): 55.3 µM
TGI (DLD-1 colon): 51.2 µM
TGI (HCC-2998 colon): 96.6 µM
TGI (HCT-116 colon): > 59.6 µM
TGI (HOP-62 NSCLC): > 56.4 µM
TGI (KM12 colon): 72.5 µM
TGI (LOX IMVI melanoma): 33.9 µM
TGI (MALME-3M melanoma): > 100 µM
TGI (NCI-H522 lung): 52.9 µM
TGI (OVCAR-4 ovarian): 25.5 µM
TGI (OVCAR-8 ovarian): > 54.1 µM
TGI (SK-MEL-2 melanoma): > 69.8 µM
TGI (SK-MEL-5 melanoma): 45.1 µM
TGI (SNB-19 CNS): > 100 µM
TGI (SNB-75 CNS): > 46.5 µM
TGI (SNB-78 CNS): > 79.4 µM
TGI (U251 CNS): > 83.6 µM
TGI (UACC-62 melanoma): 41.5 µM

NC(CCCCCCCCCCP(=O)(O)O)C(=O)O (stereo not given)
TGI (A549 NSCLC): > 100 µM
TGI (CAKI-1 renal): > 100 µM
TGI (HCC-2998 colon): > 100 µM
TGI (HCT-116 colon): > 100 µM
TGI (KM12 colon): > 100 µM
TGI (LOX IMVI melanoma): > 100 µM
TGI (NCI-H522 lung): > 100 µM
TGI (OVCAR-4 ovarian): > 100 µM
TGI (OVCAR-8 ovarian): > 100 µM
TGI (SK-MEL-2 melanoma): > 100 µM
TGI (SK-MEL-5 melanoma): > 100 µM
TGI (SNB-19 CNS): > 100 µM
TGI (SNB-75 CNS): > 100 µM
TGI (SR leukemia): > 100 µM
TGI (U251 CNS): > 100 µM
TGI (UACC-62 melanoma): > 100 µM

CC1(C)CCc2ccc(OCCC(=O)O)cc2O1
TGI (A549 NSCLC): > 100 µM
TGI (CAKI-1 renal): > 100 µM
TGI (DLD-1 colon): > 100 µM
TGI (HCT-116 colon): > 100 µM
TGI (HOP-62 NSCLC): > 100 µM
TGI (KM12 colon): > 100 µM
TGI (LOX IMVI melanoma): > 100 µM
TGI (MALME-3M melanoma): > 100 µM
TGI (NCI-H522 lung): > 100 µM
TGI (OVCAR-4 ovarian): > 100 µM
TGI (OVCAR-8 ovarian): > 100 µM
TGI (SK-MEL-2 melanoma): > 100 µM
TGI (SK-MEL-5 melanoma): > 100 µM
TGI (SNB-75 CNS): > 100 µM
TGI (SNB-78 CNS): > 100 µM
TGI (SR leukemia): > 100 µM
TGI (U251 CNS): > 100 µM
TGI (UACC-62 melanoma): > 100 µM

CCCCCCNC(=O)C(C)C1CCC2(C)C=CC(=O)C(C)=C2C1O (stereo not given)
TGI (A549 NSCLC): > 100 µM
TGI (CAKI-1 renal): > 100 µM
TGI (DLD-1 colon): > 100 µM
TGI (HCC-2998 colon): > 100 µM
TGI (HCT-116 colon): > 100 µM
TGI (HOP-62 NSCLC): > 100 µM
TGI (KM12 colon): > 100 µM
TGI (LOX IMVI melanoma): > 100 µM
TGI (NCI-H522 lung): > 100 µM
TGI (OVCAR-4 ovarian): > 100 µM
TGI (OVCAR-8 ovarian): > 100 µM
TGI (SK-MEL-2 melanoma): > 100 µM
TGI (SK-MEL-5 melanoma): > 100 µM
TGI (SNB-19 CNS): > 100 µM
TGI (SNB-75 CNS): > 100 µM
TGI (SNB-78 CNS): > 100 µM
TGI (U251 CNS): > 100 µM
TGI (UACC-62 melanoma): > 100 µM
